Results published in patent US10807960B2, “Compounds, compositions, and methods for controlling biofilms” (KATHOLIEKE UNIVERSITEIT LEUVEN, priority 2015, dated 2020).
Where two headings read alike, the source gives them in different places. Marks after values point to notes of the source that are not given here.

Assays:
[1] = tested on: C. albicans SC5314 + E. coli MG1655; assay: mixed C. albicans/E. coli biofilm assay, selective plating; type: cell-based, Candida albicans; E. coli; settings: 37° C.; for CFUs % survival E. coli: E. coli in mixed biofilm with C. albicans
Experimental: Overnight cultures of C. albicans SC5314 (YPD) and E. coli MG1655 (TSB). were washed three times with PBS, after which they were diluted in RPMI medium to optical densities at 600 nm (OD600) of 1 and 0.01, respectively. Equal volumes of these cell suspensions were mixed, and 100 μl of this mixed cell suspension together with compound was added to the wells of a microtiter plate in triplicate. The concentrations 25 μM (0.0625% DMSO or ethanol) and 100 μM (0.25% DMSO or ethanol) were tested. After 24 h incubation at 37° C. the medium was removed and the biofilm was washed with PBS. Next, the cells were re-suspended in 100 μl of PBS by scraping off, sonication (1 min, 45 kHz, USC300-T; VWR, Radnor, Pa., USA) and vigorously pipetting up-and-down. Finally, dilution series were made, and quantification of E. coli MG1655 and C. albicans SC5314 populations was performed using selective plating on TSA plates containing 25 mg/L amphotericin B and YPD plates containing 100 μg/ml tetracycline, respectively. The percentage of C. albicans SC5314 and E. coli MG1655 cells was determined relative to the DMSO or ethanol control treatment.

[2] = tested on: eukaryotic tumor cell lines; settings: as previously reported; cited from earlier work
bone cells = settings: as previously reported; cited from earlier work
Caenorhabditis elegans = settings: as previously reported; cited from earlier work
B. cepacia LMG1222T = assay: static peg (Calgary Biofilm Device) anti-biofilm assay, crystal violet and OD600; settings: 25° C.
[3] = C. albicans in mixed biofilm with E. coli MG1655, 25 μM
[4] = C. albicans in mixed biofilm with E. coli MG1655, 100 μM
[5] = read-out: BIC50, biofilm formation

CCCCCCCCn1c(-c2ccc(Cl)cc2)cnc1N [Compound 2]
CFUs % survival C.a. [1, 3]: 104.9%
CFUs % survival C.a. [1, 4]: 0.0* %
CFUs % survival E. coli ([1]; 25 μM): 158.6%
CFUs % survival E. coli ([1]; 100 μM): 0.1* %
toxicity (in words) [2]: strong toxicity
toxicity (in words) (bone cells): strong toxicity
toxicity (in words) (Caenorhabditis elegans): strong toxicity
IC50 (B. cepacia LMG1222T; planktonic growth): > 400 µM
IC50 (B. cepacia LMG1222T; [5]): 145 µM

CC(C)CNc1ncc(-c2ccc(Cl)cc2)[nH]1 [Compound 3]
CFUs % survival C.a. [1, 3]: 143.4%
CFUs % survival C.a. [1, 4]: 59.6* %
CFUs % survival E. coli ([1]; 25 μM): 138.5%
CFUs % survival E. coli ([1]; 100 μM): 63.0* %
IC50 (B. cepacia LMG1222T; planktonic growth): > 400 µM
IC50 (B. cepacia LMG1222T; [5]): 88.1 µM

Clc1ccc(-c2cnc(NC3CCCC3)[nH]2)cc1 [Compound 5]
CFUs % survival C.a. [1, 3]: 100.8%
CFUs % survival C.a. [1, 4]: 38.3* %
CFUs % survival E. coli ([1]; 25 μM): 100.6%
CFUs % survival E. coli ([1]; 100 μM): 105.6* %
IC50 (B. cepacia LMG1222T; planktonic growth): > 400 µM
IC50 (B. cepacia LMG1222T; [5]): 331 µM
